PMC7891399 (Journal of Clinical Pharmacology, 2020)
Read-outs that look alike come from different tables or passages of the source. Marks after values point to notes of the source that are not given here.

Legend:
[1] = healthy subjects, fed state; ref registration package; cited from earlier work
[2] = format: in vivo, women
[3] = Combined PANNA and iTAP comparison of pregnancy effect on TFV exposure; format: in vivo; settings: all groups of women (HIV with r/PI, HIV without r/PI, HBV monoinfection)
[4] = format: in vivo, women; settings: for AUC(0-t): female, human, plasma; for AUC0–24h Ratio Third Trimester/Postpartum GMR (90%CI) / Ctrough Ratio Third Trimester/Postpartum GMR (90%CI): paired data only
[5] = women with HBV, TDF monotherapy, paired data only

Q: Which “mean AUC0–24h” value [1] does the source give for `C[C@H](Cn1cnc2c(N)ncnc21)OCP(=O)(O)O` [TFV, tenofovir] here?
A: 2460 ± 830 ng·h/mL

Q: And the AUC(0-t) ([2]; female, human, plasma, po)?
A: 2350 ng·h/mL

Q: And the “Ctrough decrease by pregnancy, on average” value (from here on “Ctrough decrease”) ([2]; women with HBV)?
A: 31%

Q: And the “AUC0–24h lower during the third trimester compared to 1 month postpartum” value ([2]; women with HBV receiving TDF monotherapy, intraindividual)?
A: 21%

Q: What about the “Ctrough Postpartum GM (95%CI)” value ([2]; women with HBV, TDF monotherapy (n = 137), 1 month postpartum) of the same compound?
A: 0.058 (0.055–0.061) µg/mL

Q: And the “Ctrough Third Trimester GM (95%CI)” value ([2]; women with HBV, TDF monotherapy (n = 137), third trimester (32 weeks))?
A: 0.039 (0.038–0.042) µg/mL

Q: What about the “AUC0–24h Ratio Third Trimester/Postpartum GMR (90%CI)” value [2, 5] of the same compound?
A: 0.79 (0.78–0.80)

Q: And the “Ctrough Ratio Third Trimester/Postpartum GMR (90%CI)” value [2, 5]?
A: 0.69 (0.68–0.71)

Q: And the “TFV exposure decrease during the third trimester of pregnancy” value [3]?
A: approximately 25%

Q: What about the AUC(0-t) ([4]; oral) of the same compound?
A: 1840 ng·h/mL

Q: What about the AUC(0-t) ([4]; oral, AUC0–24h Postpartum GM (95%CI), women with HIV, all patients (n = 59), postpartum) of the same compound?
A: 2840 ng·h/mL

Q: And the AUC(0-t) ([4]; po)?
A: 1860 ng·h/mL

Q: What about the “Ctrough Postpartum GM (95%CI)” value ([4]; women with HIV on non-r/PI (n = 27), postpartum) of the same compound?
A: 0.056 (0.050–0.064) µg/mL

Q: And the “Ctrough Third Trimester GM (95%CI)” value ([4]; women with HIV on non-r/PI (n = 27))?
A: 0.038 (0.033–0.043) µg/mL

Q: And the “AUC0–24h Ratio Third Trimester/Postpartum GMR (90%CI)” value ([4]; women with HIV on non-r/PI)?
A: 0.74 (0.68–0.82)

Q: What about the “Ctrough Ratio Third Trimester/Postpartum GMR (90%CI)” value ([4]; women with HIV on non-r/PI) of the same compound?
A: 0.68 (0.62–0.75)

Q: What about the “Ctrough decrease” value ([4]; women with HIV on non-r/PI-based regimens) of the same compound?
A: 32%

Q: What about the “AUC0–24h lower during the third trimester compared to 1 month postpartum” value ([4]; women with HIV on non-r/PI-based regimens, intraindividual) of the same compound?
A: 26%

Q: What about the “Ctrough Postpartum GM (95%CI)” value ([4]; women with HIV on r/PI (n = 32), postpartum) of the same compound?
A: 0.063 (0.053–0.075) µg/mL

Q: And the “Ctrough Third Trimester GM (95%CI)” value ([4]; women with HIV on r/PI (n = 32))?
A: 0.048 (0.043–0.054) ^b , ^c µg/mL

Q: What about the “AUC0–24h Ratio Third Trimester/Postpartum GMR (90%CI)” value ([4]; women with HIV on r/PI) of the same compound?
A: 0.76 (0.69–0.83)

Q: What about the “Ctrough Ratio Third Trimester/Postpartum GMR (90%CI)” value ([4]; women with HIV on r/PI) of the same compound?
A: 0.81 (0.69–0.94)

Q: What about the “Ctrough decrease” value ([4]; women with HIV on r/PI-based regimens) of the same compound?
A: 19%

Q: And the “Ctrough Postpartum GM (95%CI)” value ([4]; women with HIV, all patients (n = 59), postpartum)?
A: 0.059 (0.053–0.066) µg/mL

Q: And the “Ctrough Third Trimester GM (95%CI)” value ([4]; women with HIV, all patients (n = 59))?
A: 0.043 (0.039–0.047) µg/mL

Q: And the “AUC0–24h Ratio Third Trimester/Postpartum GMR (90%CI)” value ([4]; women with HIV, all patients)?
A: 0.75 (0.70–0.80)

Q: And the “Ctrough Ratio Third Trimester/Postpartum GMR (90%CI)” value ([4]; women with HIV, all patients)?
A: 0.74 (0.67–0.81)
